Laboratory results as given in PMC11881906, “Development of xanthone derivatives as effective broad-spectrum antimicrobials: Disrupting cell wall and inhibiting DNA synthesis” (Science Advances, 2025).
Converted amounts (≈) assume the structure as drawn. Read-outs that look alike come from different tables or passages of the source.

Experiments:
[1] = test system: MRSA N315; assay: MIC, broth microdilution; format: cell-based; conditions: Staphylococcus aureus, 24-hour incubation, MHB, read-out: MIC90 MRSA N315
Procedure: (§1) MIC was determined using the broth microdilution method in accordance with Clinical and Laboratory Standards Institute guidelines. All compounds were dissolved in dimethyl sulfoxide (DMSO; final DMSO concentration of less than 0.5%) and sterile double-distilled water and then diluted with Mueller-Hinton broth (MHB). Each compound’s stock solution was serially twofold diluted, resulting in concentrations ranging from 0.39 to 100 μg/ml, and thereafter added to sterile 96-well plates. All bacterial cell suspensions were adjusted in MHB to attain a starting inoculum of 1 × 10^6 cells/ml. A total of 100 μl volume of the bacterial suspension was then added to each well. Following a 24-hour incubation at 37°C, the optical density at 600 nm (OD600) was confirmed by measuring absorbance at 600 nm with a BioTek microplate reader. […] All measurements were repeated three times with duplicates each time.

[2] = test system: MRSA NCTC 10442; assay: MIC, broth microdilution; format: cell-based; conditions: Staphylococcus aureus; 24-hour incubation, MHB; read-out: MIC90 MRSA NCTC 10442
Procedure: as §1

[3] = test system: S. aureus ATCC 29213; assay: MIC, broth microdilution; format: cell-based; conditions: Staphylococcus aureus, ATCC29213, 24 h, 24-hour incubation, MHB; read-out: MIC90 S. aureus ATCC 29213
Procedure: as §1

[4] = test system: E. coli ATCC 25922; assay: MIC, broth microdilution; format: cell-based, Escherichia coli; conditions: 24-hour incubation, MHB; for MIC90: Escherichia coli, ATCC25922, 24 h, read-out: MIC90 E. coli ATCC 25922
Procedure: as §1

[5] = test system: rabbit erythrocytes; assay: Hemolysis assay; format: cell-based; conditions: concentration causing 50% hemolysis of red blood cells; 1 hour, 37°C
Procedure: The hemolytic activity of antimicrobial agents was investigated as previously described ([70]). Briefly, the rabbit erythrocytes were centrifuged at 2500 rpm for 3 min before being washed twice with sterile phosphate-buffered saline (PBS) (pH 7.4). Subsequently, the erythrocytes were diluted with PBS to a final concentration of 8% (v/v). The DMSO-dissolved compounds were twofold serially diluted in PBS to achieve a final concentration with DMSO less than 0.5%. […] Sterile PBS and 0.2% Triton X-100 were used as negative and positive controls, respectively. After 1 hour of incubation at 37°C, the tested samples were centrifuged at 2500 rpm for 5 min, and aliquots of the supernatant were added to 96-well microplates. The hemoglobin release was determined by measuring the absorbance at 576 nm using a BioTek multimode reader. The percentage of hemolytic activity was calculated using the following formula: Hemolysis rate (%) = [OD576 (compound) − OD576 (PBS)]/[OD576 (Triton X-100) − OD576 (PBS)] × 100. All measurements were repeated three times with duplicates each time.

[6] = test system: tested strains (Gram-positive and Gram-negative bacteria); assay: MIC, summary over the tested strains; format: cell-based; conditions: read-out: MICs against the tested strains
Procedure: as §1

[7] = Gram-positive and Gram-negative strains

SMILES	MIC90 [1] [µg/mL]	MIC90 [2] [µg/mL]	MIC90 [3] [µg/mL]	MIC90 [4] [µg/mL]	HC50 [5] [µg/mL]	MIC [6, 7] [µg/mL]	MIC90 E. coli ATCC 25922 [4] [µg/mL]	MIC ([6]; 24 h) [µg/mL]
CNCCCCCCOc1ccc2c(=O)c3c(OCC=C(C)C)cc(OCCCCCCNC)cc3oc2c1 [XT34]	1.56 (≈ 2.9 µM)	1.56 (≈ 2.9 µM)	1.56 (≈ 2.9 µM)	12.5 (≈ 23.2 µM)	>200	–	–	–
CCN(CC)CCCOc1ccc2c(=O)c3c(OCC=C(C)C)cc(OCCCN(CC)CC)cc3oc2c1 [XT09]	12.5 (≈ 23.2 µM)	6.25 (≈ 11.6 µM)	6.25 (≈ 11.6 µM)	50 (≈ 92.8 µM)	>200	6.25 to 50 (≈ 11.6 to 92.8 µM)	–	–
CC(C)=CCOc1cc(OCCCCN)cc2oc3cc(OCCCCN)ccc3c(=O)c12 [XT33]	3.12 (≈ 6.87 µM)	3.12 (≈ 6.87 µM)	3.12 (≈ 6.87 µM)	12.5 (≈ 27.5 µM)	>200	–	–	–
CNCCCCCCCCOc1ccc2c(=O)c3c(OCC=C(C)C)cc(OCCCCCCCCNC)cc3oc2c1 [XT37]	0.39 (≈ 0.656 µM)	0.39 (≈ 0.656 µM)	0.78 (≈ 1.31 µM)	6.25 (≈ 10.5 µM)	>200	–	–	–
CCN(CC)CCCCCCOc1ccc2c(=O)c3c(OCC=C(C)C)cc(OCCCCCCN(CC)CC)cc3oc2c1 [XT35]	3.12 (≈ 5.02 µM)	3.12 (≈ 5.02 µM)	1.56 (≈ 2.5 µM)	50 (≈ 80.3 µM)	>200	–	–	–
CNCCCCOc1ccc2c(=O)c3c(OCC=C(C)C)cc(OCCCCNC)cc3oc2c1 [XT31]	6.25 (≈ 13 µM)	6.25 (≈ 13 µM)	6.25 (≈ 13 µM)	12.5 (≈ 25.9 µM)	>200	–	–	–
CCN(CC)CCCCCCCCCCCCOc1ccc2c(=O)c3c(OCC=C(C)C)cc(OCCCCCCCCCCCCN(CC)CC)cc3oc2c1 [XT41]	3.12 (≈ 3.95 µM)	3.12 (≈ 3.95 µM)	–	> 100	>200	–	>100	–
CC1(C)S[C@@H]2[C@H](NC(=O)[C@H](N)c3ccc(O)cc3)C(=O)N2[C@H]1C(=O)O [AMO, amoxicillin, reference compound]	–	–	–	6.25 (≈ 17.1 µM)	>200	–	–	–
CCN(CC)CCCCCCCCOc1ccc2c(=O)c3c(OCC=C(C)C)cc(OCCCCCCCCN(CC)CC)cc3oc2c1 [XT38]	0.78 (≈ 1.15 µM)	1.56 (≈ 2.3 µM)	0.39 (≈ 0.574 µM)	> 50	>200	–	–	–
CNCCCCCCCCCCCCOc1ccc2c(=O)c3c(OCC=C(C)C)cc(OCCCCCCCCCCCCNC)cc3oc2c1 [XT40]	12.5 (≈ 17.7 µM)	6.25 (≈ 8.84 µM)	25 (≈ 35.4 µM)	> 100	>200	–	>100	–
CNCCCOc1ccc2c(=O)c3c(OCCCC(F)(F)F)cc(OCCCNC)cc3oc2c1 [XT16]	> 50	> 50	50 (≈ 101 µM)	> 100	>200	–	–	50 to 100 (≈ 101 to 201 µM)
CC(C)=CCOc1cc(OCCCNCCN(CCN)CCN)cc2oc3cc(OCCCNCCN(CCN)CCN)ccc3c(=O)c12 [XT13]	6.25 (≈ 9.13 µM)	6.25 (≈ 9.13 µM)	6.25 (≈ 9.13 µM)	50 (≈ 73 µM)	>200	6.25 to 50 (≈ 9.13 to 73 µM)	–	–
CCN(CC)CCCCOc1ccc2c(=O)c3c(OCC=C(C)C)cc(OCCCCN(CC)CC)cc3oc2c1 [XT32]	6.25 (≈ 11 µM)	3.12 (≈ 5.51 µM)	3.12 (≈ 5.51 µM)	100 (≈ 176 µM)	>200	–	–	–
CC(C)=CCOc1cc(OCCCN2CCCC2)cc2oc3cc(OCCCN4CCCC4)ccc3c(=O)c12 [XT12]	12.5 (≈ 23.4 µM)	6.25 (≈ 11.7 µM)	6.25 (≈ 11.7 µM)	25 (≈ 46.8 µM)	>200	6.25 to 25 (≈ 11.7 to 46.8 µM)	–	–
CNCCCOc1ccc2c(=O)c3c(OCC=C(C)C)cc(OCCCNC)cc3oc2c1 [XT08]	12.5 (≈ 27.5 µM)	12.5 (≈ 27.5 µM)	12.5 (≈ 27.5 µM)	25 (≈ 55 µM)	>200	6.25 to 50 (≈ 13.7 to 110 µM)	–	–
CCCCN(CCCC)CCCOc1ccc2c(=O)c3c(OCC=C(C)C)cc(OCCCN(CCCC)CCCC)cc3oc2c1 [XT10]	6.25 (≈ 9.6 µM)	12.5 (≈ 19.2 µM)	12.5 (≈ 19.2 µM)	> 50	>200	–	–	–
